Results as given in US8183364B2, “Substituted porphyrins” (Duke University, priority 2004, dated 2012).

Columns and labels:
[1] = Kinetic salt effect on O2.^− dismutation by cytochrome c assay; assay type: biochemical; settings: 0.05 M phosphate buffer, pH 7.8, 0-0.4 M NaCl
Procedure: Kinetic salt effect. The dependence of the catalytic rate constant for the O2.^− dismutation upon ionic strength was determined by cytochrome c assay (McCord and Fridovich, J. Biol. Chem. 244:6049 (1969)) in 0.05 M phosphate buffer, pH 7.8 with NaCl ranging from 0 to 0.4 M. In doing this, the effect of ionic strength on the rate of the O2.^−/cytochrome c reaction was corrected for.
Kinetic salt effect. The effect of the ionic strength (μ) on the catalytic rate constant was assessed using eq which is based on Debye-Huckel relation (Hambright et al, J. Porphyrins Phthalocyanines 7:139-146 (2003)) for the effect of the ionic strength of the solution on the activity coefficient of an ion. log k=log kref+2AzAzBμ^1/2/(1+μ^1/2) The k is the rate constant at any given ionic strength, while kref is the rate constant at μ=0. The A is a collection of physical constants with a value of 0.509 and zA and zB are the charges of the reacting species. The equation predicts a linear plot of log k vs μ^1/2/(1+μ^1/2). Eq assumes a coefficient of 1.0 (βai) for μ^1/2 in the denominator, i.e., the distance of the closest approach, ai to be 3 A and β is a physical constant, […]. It is doubtful whether great significance can be attributed to the ai, thus to the product zAzB (Hambright et al, J. Porphyrins Phthalocyanines 7:139-146 (2003)), especially so in the light of the bulkiness, high charge and solvation shell of the metalloporphyrins. Accounting for the mono- and diprotonated phosphates as the major species at pH 7.8 (pKa=7.2), and the concentration of the NaCl, the ionic strength was calculated using equation μ=½ Σ mizi^2 where mi is the molality and zi the charge of the given ion.
The slopes of the plots are −6.48 (MnTE-2-PyP^5+), −7.02 (MnTMOE-2-PyP^5+), −7.38 (MnTDMOE-2-ImP^5+), and −4.15 (MnTnBu-2-PyP^5+). As expected (Hambright et al, J. Porphyrins Phthalocyanines 7:139-146 (2003)), when the reactants are ions of opposite charges, the higher the ionic strength of the solution the lower the rate constants, i.e. the slopes are negative. The slopes of the plots indicate clearly the impact of the local dielectric constant on the kcat. The kcat of the most lipophilic compound, MnTnBu-2-PyP^5+ is 40% less sensitive to the changes in ionic strength of the solution than is the kcat of its methoxyethyl analogue, MnTMOE-2-PyP^5+.

[2] = Electrochemistry: cyclic voltammetry of the Mn(III)/Mn(II) redox couple; assay type: physicochemical; settings: for Metal-centered redox potential E1/2: Mn(III)/Mn(II), 0.1 M NaCl, 0.05 M phosphate buffer, pH 7.8, ±3 mV
Procedure: Electrochemistry. Measurements were performed on a CH Instruments Model 600 Voltammetric Analyzer (Spasojevic and Batinic-Haberle, Inorg. Chim. Acta. 317:230-242 (2001), Batinic-Haberle et al, J. Biol. Chem. 273:24521-24528 (1998), Batinic-Haberle et al, Inorg. Chem. 38:4011-4022 (1999)). A three-electrode system in a small volume cell (0.5 mL to 3 mL), with a 3 mm-diameter glassy carbon button working electrode (Bioanalytical Systems), plus the Ag/AgCl reference and Pt auxiliary electrodes was used. Argon-purged solutions contained 0.05 M phosphate buffer, pH 7.8, 0.1 M NaCl, and 0.5 mM metalloporphyrin. The scan rates were 0.01-0.5 V/s, typically 0.1 V/s. The potentials were standardized against the potassium ferrocyanide/ferricyanide (Kolthof and Tomsicek, J. Phys. Chem. 39:945 (1935)) and/or against MnTE-2-PyP^5+ (Spasojevic and Batinic-Haberle, Inorg. Chim. Acta. 317:230-242 (2001), Batinic-Haberle et al, J. Biol. Chem. 273:24521-24528 (1998), Batinic-Haberle et al, Inorg. Chem. 38:4011-4022 (1999)).
Electrochemistry. All cyclic voltammograms, ascribed to the Mn(III)/Mn(II) redox couple, are reversible. The E1/2 of di-ortho ethylimidazolylporphyrin, MnTDE-2-ImP^5+ is 118 mV more positive than of ortho ethylpyridylporphyrin, MnTE-2-PyP^5+ (+228 mV vs NHE), as a consequence of charge delocalization. A similar difference of 114 mV was seen between their methoxyethyl analogues. Mn porphyrins bearing N-pyridyl substituents of the same length, MnTnBu-PyP^5+ and MnTMOE-2-PyP^5+, have nearly identical E1/2 of +254 and +251 mV vs NHE, which is 26 and 23 mV higher than that of MnTE-PyP^5+.

[3] = Thin-layer chromatography on silica gel (retention factor Rf, lipophilicity); assay type: physicochemical; settings: silica gel TLC, KNO3-saturated H2O/H2O/acetonitrile = 1/1/8; for Rf (compound path/solvent path), metal-free porphyrin (in parenthesis): metal-free ligand of the named Mn porphyrin
Procedure: Uv/vis spectra of porphyrin ligands and their Mn complexes were taken on a Shimadzu UV-2501-PC spectrophotometer at 25° C. Thin-layer chromatography of ligands and Mn complexes was done using silica gel plates with KNO3satH2O/H2O/acetonitrile=1/1/8.
Thin-layer chromatography. All new methoxyporphyrins are more lipophilic than MnTE-2-PyP^5+ and MnTDE-2-ImP^5+.

[4] = system: SOD-deficient JI132 E. coli; test: Aerobic growth of SOD-deficient E. coli; assay type: cell-based; settings: for aerobic growth of SOD-deficient E. coli: 5AA minimal medium
Outline: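 Strains were AB1157 and its sodA sodB mutant JI132, precultured overnight in M9CA at 37 °C, then diluted to 3×10^7 cells/mL in M9CA or, after washing, in 5AA minimal medium. Mn porphyrins at 0.1 to 30 μM were present during aerobic shaking at 37 °C. Growth rate was followed by turbidity at 700 nm.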

Compound | slope of log kcat vs μ^1/2/(1+μ^1/2) [1] | Metal-centered redox potential E1/2 [2] | Rf (compound path/solvent path), metal-free porphyrin (in parenthesis) [3] | Rf (compound path/solvent path), Mn complex [3] | aerobic growth of SOD-deficient E. coli ([4]; 3 μM) | aerobic growth of SOD-deficient E. coli ([4]; 25 μM) | protection of SOD-deficient E. coli ([4]; M9CA medium, 3 μM) | protection of E. coli from oxidative stress ([4]; ≦3 μM levels (FIG. 10: 5AA minimal medium)) | E1/2 more positive / higher than that of MnTE-2-PyP^5+ ([2]; difference vs MnTE-2-PyP^5+ (+228 mV vs NHE)) [mV]
COCCn1cc[n+](CCOC)c1-c1c2nc(c(-c3n(CCOC)cc[n+]3CCOC)c3ccc([n-]3)c(-c3n(CCOC)cc[n+]3CCOC)c3nc(c(-c4n(CCOC)cc[n+]4CCOC)c4ccc1[n-]4)C=C3)C=C2.[Mn+3] [MnTDMOE-2-ImP^5+, Mn(III) tetrakis 5,10,15,20-tetrakis[N,N′-di(2-methoxyethyl)imidazolium-2-yl]porphyrin] | −7.38 | +365 mV vs NHE | 0.24 | 0.21 | the most effective methoxyethyl porphyrin | not far behind | the most effective (next to n-butyl and n-hexyl) | the most protective | –
COCC[n+]1ccccc1-c1c2nc(c(-c3cccc[n+]3CCOC)c3ccc([n-]3)c(-c3cccc[n+]3CCOC)c3nc(c(-c4cccc[n+]4CCOC)c4ccc1[n-]4)C=C3)C=C2.[Mn+3] [MnTMOE-2-PyP^5+, Mn(III) tetrakis 5,10,15,20-tetrakis[N-(2-methoxyethyl)pyridinium-2-yl]porphyrin] | −7.02 | +251 mV vs NHE | 0.18 | 0.16 | – | not far behind | – | – | 23
